Values quoted from earlier work, collected in US8034370B2, “Ocular implant made by a double extrusion process” (Allergan, Inc., priority 2003, dated 2011).
Where two headings read alike, the source gives them in different places.

Assays:
[1] = in vivo efficacy
[2] = after topical administration

C[C@]12CCC(=O)C=C1CC[C@@H]1[C@@H]2[C@@H](O)C[C@@]2(C)[C@H]1CC[C@]2(O)C(=O)CO [hydrocortisone]
potency relative to dexamethasone [1]: approximately twenty five

C[C@@H]1C[C@H]2[C@@H]3CCC4=CC(=O)C=C[C@]4(C)[C@@]3(F)[C@@H](O)C[C@]2(C)[C@@]1(O)C(=O)CO [Dexamethasone, pregna-1,4-diene-3,20-dione-9-fluoro-11,17,21-trihydroxy-16-methyl-, (11β,16α)]
Solubility (Ethanol): Ethanol: Sparingly soluble | Solubility (Methylene chloride): Methylene chloride: slightly soluble | Solubility (Water): Water: practically insoluble | fraction reaching the anterior segment [2]: about 1%
